From patent US12226410B2, “Methods for enhancing cellular clearance of pathological molecules via activation of the cellular protein ykt6” (NORTHWESTERN UNIVERSITY, priority 2019, dated 2025)
“Also recorded” adds a separate entry of the source.

Assays:
ykt6 [1] = assay: Ykt6 membrane shift analysis under lysosomal stress; assay type: cell-based, human
Protocol: (§1) FIGS. 3A, 3B, 3C, 3D, 3E, 3F, 3G, 3H, 3I, 3J, and 3K. Ykt6 is activated in response to lysosomal stress. 3A) Ykt6 membrane shift analysis in bafA1 (200 nM, 2 hrs) or NH4Cl (1M, 12 hrs) treated iPSn (d60). CBB, coomassie brilliant blue, (BafA1 and NH4Cl are indicated, n=7-10). 3B) Co-IP of GFP-ykt6 and bet1 in control iPSn (d60) treated with bafA1 (n=3). 3C) Ykt6 and GM130 immunofluorescence analysis of bafA1-treated H4 cells (n=9). Scale bars=10 um. 3D) Ykt6 membrane shift analysis in CBE-treated SH-SY5Y cells (50 μM, 2d, n=3). 3E) Co-IP of GFP-ykt6, bet1 and STX5 in CBE-treated SHSY5Y cells (n=5). 3F) Ykt6 membrane shift analysis in control or Gaucher disease (GD) iPSn (d100). a-Syn was knocked-out (SNCA KO) in GD lines by CRISPR/Cas9. Two exposures are included to better visualize cyt and mem ykt6 (n=4). 3G) Ykt6 membrane shift analysis in lenti-infected SH-SY5Y cells (moi3, dpi 10) (n=3). C, cytosolic; N, nuclear. 3H) GCase maturation was assessed by endo H digest in lenti-infected SH-SY5Y cells. Empty vector (vect), scrambled (scrb). 3I) Control iPSn were infected as in 3H and analyzed for GCase maturation (n=3). 3J) Live cell GCase activity in lenti-infected iPSn (n=4). 3K) Lysosomal mass measurement in control iPSn (n=4). Values are the mean+/−SEM, *p<0.05.
FIGS. 12A, 12B, 12C, 12D, 12E, and 12F. The effects of ykt6 knock-down on the lysosomal system and characterization of GD-SNCA KO iPSCs. […] 12B) Protein secretion was measured by radioactive pulse-chase from the same culture wells that correspond to proteolysis data of FIG. 2H. 12C) Control iPSn were treated with 50 mM sucrose for 7 days followed by membrane shift analysis of ykt6. 12D) Control iPSn were infected with scrambled (S) or ykt6 shRNA (KD) and treated with or without sucrose as done in panel B. LAMP1 levels were analyzed by western blot. GAPDH is a loading control (n=4). 12E) Cultures were treated as described in panel C, and analyzed for GCase maturation by western blot analysis (n=4). For all quantifications, values are the mean+/−SEM, *p<0.05. 12F) Analysis of off-target edits by CRISPR/Cas9 in SNCA knock out (KO) Gaucher disease iPSCs. The targeting strategy has been previously published (Zunke et al., 2018). Genomic sequences showing the closest homology to SNCA were analyzed for mis-matched mutations by T7 digestion, and compared to the parental GD line. PCR amplicons were analyzed by agarose gel electrophoresis stained with ethidium bromide. For all quantifications, values are the mean+/−SEM, *p<0.05. Student's T-test was used in panel 12A, while ANOVA with Tukey's post-hoc test was used in panels 12D and 12E.
Separation of lysates into cytosol and membrane fractions. […]

ykt6 SNARE complexes = assay: Co-IP of GFP-ykt6 SNARE complexes under lysosomal stress; assay type: cell-based, human
Protocol: as §1, with “Empty vector (vect), scrambled (scrb).” left out, “3J) Live cell GCase activity in lenti-infected iPSn (n=4). 3K) Lysosomal mass measurement in control iPSn (n=4). Values are the mean+/−SEM, *p<0.05.” left out
To co-IP ykt6 SNARE assemblies, approximately 106-107 cells expressing GFP-tagged YKT6, were harvested in 1 ml of PBS, scraped off the plate and transferred to centrifuge tubes. […] Eluates were analyzed by western blot as described below. The samples were not analyzed in a blinded manner.

[2] = target: T1, ykt6 SNARE binding (STX5) (Homo sapiens, UniProt O15498); assay: Co-IP of GFP-ykt6 and STX5 in Hela cells; assay type: cell-based; settings: Hela cells stably expressing GFP-ykt6; 2 days
T1 construct: expressed in transfected cells
T1 sequence (O15498 1-195 limits assumed): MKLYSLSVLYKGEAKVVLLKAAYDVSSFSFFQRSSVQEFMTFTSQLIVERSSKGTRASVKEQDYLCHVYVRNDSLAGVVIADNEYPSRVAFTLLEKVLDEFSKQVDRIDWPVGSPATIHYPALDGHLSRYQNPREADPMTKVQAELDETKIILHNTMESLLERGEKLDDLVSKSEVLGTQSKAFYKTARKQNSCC

ykt6 [3] = target: T2, ykt6 (Homo sapiens, UniProt O15498); assay: GFP-ykt6 / GM130 colocalization in Hela cells; assay type: cell-based; settings: Hela cells stably expressing GFP-ykt6; 2 days, various concentrations
T2 construct: expressed in transfected cells
T2 sequence (O15498 1-198): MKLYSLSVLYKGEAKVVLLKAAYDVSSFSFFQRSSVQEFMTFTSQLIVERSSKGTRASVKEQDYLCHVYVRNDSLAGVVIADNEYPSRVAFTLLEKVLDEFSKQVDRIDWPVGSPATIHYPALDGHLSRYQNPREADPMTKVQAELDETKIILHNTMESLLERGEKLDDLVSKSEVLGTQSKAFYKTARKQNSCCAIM
Protocol: FIG. 19. […] A) Hela cells stably expressing GFP-ykt6 (green) were treated with #20 for 2 days at various concentrations, fixed, stained with Golgi marker GM130 (red), and colocalization was quantified by Pearson's correlation. Each plot represents an individual cell, from 3 culture wells. LNK-754 was used at 10 nM. B) Stable transfected Hela cells were incubated as in A followed by biochemical fractionation/western blot to detect cytosolic (cyt) or membrane (mem) ykt6. The assay was repeated 3 times, representative blot shown.
We tested the activity of Compound #20 ((3R)-1-[(1-{[1-(4,5-dimethylthiophene-2-carbonyl)piperidin-4-yl]methyl}-1H-1,2,3-triazol-4-yl)methyl]pyrrolidin-3-amine) regarding activation of ykt6 in Hela cells. (See FIG. 19). Hela cells stably expressing GFP-ykt6 were treated with Compound #20 for 2 days at various concentrations, fixed, stained with Golgi marker GM130, and colocalization was quantified by Pearson's correlation.

OC[C@H]1O[C@@](CO)(O[C@H]2O[C@H](CO)[C@@H](O)[C@H](O)[C@H]2O)[C@@H](O)[C@@H]1O [sucrose]
ykt6 cytosol/membrane distribution (ykt6 [1]; control iPSn, 50 mM, 7 days): caused ykt6 to shift into membranes

O[C@H]1[C@H](O)[C@@H](O)[C@@H]2O[C@@H]2[C@@H]1O [CBE]
ykt6 SNARE complexes (co-IP GFP-ykt6, bet1 and STX5) (ykt6 SNARE complexes; SHSY5Y cells): increased ykt6 SNARE complexes | ykt6 cytosol/membrane distribution (ykt6 [1]; SH-SY5Y cells, 50 μM, 2d): caused ykt6 to shift into membranes

Cc1cc(C(=O)N2CCC(Cn3cc(CN4CC[C@@H](N)C4)nn3)CC2)sc1C [Compound #20, (3R)-1-[(1-{[1-(4,5-dimethylthiophene-2-carbonyl)piperidin-4-yl]methyl}-1H-1,2,3-triazol-4-yl)methyl]pyrrolidin-3-amine]
SNARE binding (STX5 co-IP) [2]: increases SNARE binding | ykt6 activity (GFP-ykt6 colocalization with GM130, Pearson's correlation) (ykt6 [3]): can activate ykt6; also recorded: increases ykt6 activity

Cl.N [NH4Cl]
ykt6 cytosol/membrane distribution (ykt6 [1]; healthy control iPSn (d60), 1M, 12 hrs): caused a shift of ykt6 from the cytosol into membrane fractions

CO/C1=C\C(C)=C\[C@@H](C)[C@@H](O)[C@@H](C)C/C(C)=C/C=C/[C@H](OC)[C@@H]([C@@H](C)[C@@H](O)[C@H](C)[C@@]2(O)C[C@@H](O)[C@H](C)[C@@H](C(C)C)O2)OC1=O [bafilomycin A1]
assembly of ykt6 ER-Golgi SNARE complexes (co-IP GFP-ykt6 and bet1) (ykt6 SNARE complexes; control iPSn (d60)): promoted the assembly of ykt6 ER-Golgi SNARE complexes | ykt6 cytosol/membrane distribution (ykt6 [1]; healthy control iPSn (d60), 200 nM, 2 hrs): caused a shift of ykt6 from the cytosol into membrane fractions
